Test results as given in publication PMC11345841, “Exploring 2-Sulfonylpyrimidine Warheads as Acrylamide Surrogates for Targeted Covalent Inhibition: A BTK Story” (Journal of Medicinal Chemistry, 2024).
Where two headings read alike, the source gives them in different places.

Columns and labels:
Assay in all cases: KINOMEscan ScanTK
Assay type in all cases: binding
DDR2 = biological target: T1, DDR2 (Homo sapiens, UniProt Q16832); settings: DDR2
T1 construct: purchased Eurofins DiscoverX KINOMEscan (scanTK)
T1 sequence (Q16832 22-855): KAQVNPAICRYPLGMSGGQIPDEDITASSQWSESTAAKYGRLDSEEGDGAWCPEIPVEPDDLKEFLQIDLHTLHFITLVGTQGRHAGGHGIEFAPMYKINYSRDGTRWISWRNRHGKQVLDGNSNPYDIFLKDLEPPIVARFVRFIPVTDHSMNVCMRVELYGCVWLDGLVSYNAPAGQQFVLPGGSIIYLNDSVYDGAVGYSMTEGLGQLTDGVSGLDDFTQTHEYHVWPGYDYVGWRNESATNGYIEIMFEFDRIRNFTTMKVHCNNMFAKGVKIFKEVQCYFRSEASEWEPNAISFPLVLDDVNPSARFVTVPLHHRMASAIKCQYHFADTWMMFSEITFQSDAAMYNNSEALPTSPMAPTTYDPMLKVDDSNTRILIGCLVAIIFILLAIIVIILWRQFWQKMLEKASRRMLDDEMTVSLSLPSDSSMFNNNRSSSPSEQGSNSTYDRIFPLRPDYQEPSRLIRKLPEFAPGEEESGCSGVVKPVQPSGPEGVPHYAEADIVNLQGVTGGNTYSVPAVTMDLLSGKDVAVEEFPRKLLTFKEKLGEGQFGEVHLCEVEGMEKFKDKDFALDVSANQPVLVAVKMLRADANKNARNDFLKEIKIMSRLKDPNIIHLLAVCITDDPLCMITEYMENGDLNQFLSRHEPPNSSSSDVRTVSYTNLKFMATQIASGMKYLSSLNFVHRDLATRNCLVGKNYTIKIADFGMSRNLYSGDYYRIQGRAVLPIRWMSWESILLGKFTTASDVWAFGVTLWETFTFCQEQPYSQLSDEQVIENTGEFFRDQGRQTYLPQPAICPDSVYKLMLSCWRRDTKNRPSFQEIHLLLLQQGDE

EGFR(E746-A750del) = biological target: T2, EGFR(E746-A750del) (Homo sapiens, UniProt P00533, DEL746-750)
T2 construct: purchased Eurofins DiscoverX KINOMEscan (scanTK)
T2 sequence (P00533 with tags, fused parts or gaps DEL746-750 limits assumed): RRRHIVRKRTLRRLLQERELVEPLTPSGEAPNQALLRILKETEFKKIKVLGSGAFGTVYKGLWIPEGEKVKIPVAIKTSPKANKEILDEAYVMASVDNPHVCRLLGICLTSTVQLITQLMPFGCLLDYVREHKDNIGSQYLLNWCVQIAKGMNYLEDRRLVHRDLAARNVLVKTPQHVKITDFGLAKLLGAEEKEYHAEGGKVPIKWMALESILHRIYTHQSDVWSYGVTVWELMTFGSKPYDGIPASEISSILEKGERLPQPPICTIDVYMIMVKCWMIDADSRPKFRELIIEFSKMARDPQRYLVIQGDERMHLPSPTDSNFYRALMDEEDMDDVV

FLT1 = biological target: T3, FLT1 (Homo sapiens, UniProt P17948)
T3 construct: purchased Eurofins DiscoverX KINOMEscan (scanTK)
T3 sequence (P17948 27-1338): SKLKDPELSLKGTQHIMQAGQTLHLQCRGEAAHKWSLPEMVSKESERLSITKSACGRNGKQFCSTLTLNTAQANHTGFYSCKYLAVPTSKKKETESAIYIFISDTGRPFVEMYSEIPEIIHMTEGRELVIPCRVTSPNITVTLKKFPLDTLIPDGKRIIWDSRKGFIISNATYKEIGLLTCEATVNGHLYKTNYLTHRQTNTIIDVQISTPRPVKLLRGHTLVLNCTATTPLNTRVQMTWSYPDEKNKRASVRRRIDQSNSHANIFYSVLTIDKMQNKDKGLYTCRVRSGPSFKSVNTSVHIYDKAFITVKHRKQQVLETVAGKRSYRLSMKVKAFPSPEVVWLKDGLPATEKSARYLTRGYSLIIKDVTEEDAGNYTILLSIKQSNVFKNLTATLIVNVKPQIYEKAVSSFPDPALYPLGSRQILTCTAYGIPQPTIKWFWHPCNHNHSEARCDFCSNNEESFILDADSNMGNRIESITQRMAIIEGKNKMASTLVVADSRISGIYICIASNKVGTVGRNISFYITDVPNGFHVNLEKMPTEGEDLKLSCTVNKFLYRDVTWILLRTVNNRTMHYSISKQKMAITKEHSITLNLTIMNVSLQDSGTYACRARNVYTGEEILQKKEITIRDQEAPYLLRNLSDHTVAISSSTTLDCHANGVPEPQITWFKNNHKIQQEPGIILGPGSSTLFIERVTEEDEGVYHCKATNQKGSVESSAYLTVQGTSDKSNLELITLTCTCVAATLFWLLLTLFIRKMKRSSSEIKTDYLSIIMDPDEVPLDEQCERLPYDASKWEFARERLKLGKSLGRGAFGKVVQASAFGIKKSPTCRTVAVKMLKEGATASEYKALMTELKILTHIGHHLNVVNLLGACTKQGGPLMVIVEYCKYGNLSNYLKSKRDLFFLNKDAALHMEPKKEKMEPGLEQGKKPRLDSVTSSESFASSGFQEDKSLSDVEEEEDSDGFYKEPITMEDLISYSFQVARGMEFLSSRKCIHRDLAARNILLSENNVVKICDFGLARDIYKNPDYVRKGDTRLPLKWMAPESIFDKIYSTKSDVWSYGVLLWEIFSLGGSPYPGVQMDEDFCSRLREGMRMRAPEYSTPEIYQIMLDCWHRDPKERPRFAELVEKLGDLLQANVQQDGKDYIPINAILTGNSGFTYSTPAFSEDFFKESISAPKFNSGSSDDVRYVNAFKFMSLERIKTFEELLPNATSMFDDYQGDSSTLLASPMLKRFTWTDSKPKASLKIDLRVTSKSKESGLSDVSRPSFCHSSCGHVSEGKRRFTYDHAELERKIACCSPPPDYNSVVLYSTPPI

FLT3(K663Q) = biological target: T4, FLT3(K663Q) (Homo sapiens, UniProt P36888, K663Q)
T4 construct: purchased Eurofins DiscoverX KINOMEscan (scanTK)
T4 sequence (P36888 27-993 K663Q): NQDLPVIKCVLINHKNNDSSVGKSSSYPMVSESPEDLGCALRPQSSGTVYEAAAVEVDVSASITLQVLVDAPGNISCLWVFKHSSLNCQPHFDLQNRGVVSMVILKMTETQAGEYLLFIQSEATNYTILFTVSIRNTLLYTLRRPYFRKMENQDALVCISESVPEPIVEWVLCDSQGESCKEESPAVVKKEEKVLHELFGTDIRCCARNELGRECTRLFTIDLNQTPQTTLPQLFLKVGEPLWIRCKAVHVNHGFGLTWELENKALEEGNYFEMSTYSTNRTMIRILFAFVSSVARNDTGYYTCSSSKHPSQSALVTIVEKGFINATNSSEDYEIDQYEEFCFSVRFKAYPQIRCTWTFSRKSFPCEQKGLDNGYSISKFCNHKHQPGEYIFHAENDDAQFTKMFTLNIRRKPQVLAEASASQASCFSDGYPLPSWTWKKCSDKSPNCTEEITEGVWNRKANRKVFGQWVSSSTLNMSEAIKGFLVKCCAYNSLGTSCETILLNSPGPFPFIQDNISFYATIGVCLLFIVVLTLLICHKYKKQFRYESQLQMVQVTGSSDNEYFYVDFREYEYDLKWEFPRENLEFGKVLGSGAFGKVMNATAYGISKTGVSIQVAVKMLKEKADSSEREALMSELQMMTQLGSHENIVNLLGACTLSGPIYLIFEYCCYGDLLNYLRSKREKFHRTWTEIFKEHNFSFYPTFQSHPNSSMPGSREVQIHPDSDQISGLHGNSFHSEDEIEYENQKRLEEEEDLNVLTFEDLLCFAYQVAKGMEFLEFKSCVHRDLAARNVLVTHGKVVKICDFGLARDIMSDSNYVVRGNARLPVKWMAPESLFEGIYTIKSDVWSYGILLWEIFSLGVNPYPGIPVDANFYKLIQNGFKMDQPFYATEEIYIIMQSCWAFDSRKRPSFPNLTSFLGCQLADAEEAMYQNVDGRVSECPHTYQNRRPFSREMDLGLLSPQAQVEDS

HCK = biological target: T5, HCK (Homo sapiens, UniProt P08631)
T5 construct: purchased Eurofins DiscoverX KINOMEscan (scanTK)
T5 sequence (P08631 whole entry): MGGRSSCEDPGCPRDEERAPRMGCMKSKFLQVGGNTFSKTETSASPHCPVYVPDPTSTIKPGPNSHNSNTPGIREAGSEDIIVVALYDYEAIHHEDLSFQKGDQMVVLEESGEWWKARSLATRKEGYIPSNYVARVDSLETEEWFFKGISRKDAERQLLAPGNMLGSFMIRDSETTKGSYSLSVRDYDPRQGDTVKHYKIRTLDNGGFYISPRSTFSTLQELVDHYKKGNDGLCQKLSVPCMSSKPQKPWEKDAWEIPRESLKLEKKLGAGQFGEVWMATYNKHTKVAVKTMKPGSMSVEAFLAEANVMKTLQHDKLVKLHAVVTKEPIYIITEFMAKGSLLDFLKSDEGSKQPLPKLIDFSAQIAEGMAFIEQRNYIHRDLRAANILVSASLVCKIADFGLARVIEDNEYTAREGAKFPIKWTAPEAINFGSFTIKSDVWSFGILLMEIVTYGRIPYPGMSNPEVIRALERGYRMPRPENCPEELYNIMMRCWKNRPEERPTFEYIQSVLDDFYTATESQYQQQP

KIT(A829P) = biological target: T6, KIT(A829P) (Homo sapiens, UniProt P10721, A829P)
T6 construct: purchased Eurofins DiscoverX KINOMEscan (scanTK)

MET(M1250T) = biological target: T7, MET(M1250T) (Homo sapiens, UniProt P08581, M1250T)
T7 construct: purchased Eurofins DiscoverX KINOMEscan (scanTK)
T7 sequence (P08581 25-1390 M1250T): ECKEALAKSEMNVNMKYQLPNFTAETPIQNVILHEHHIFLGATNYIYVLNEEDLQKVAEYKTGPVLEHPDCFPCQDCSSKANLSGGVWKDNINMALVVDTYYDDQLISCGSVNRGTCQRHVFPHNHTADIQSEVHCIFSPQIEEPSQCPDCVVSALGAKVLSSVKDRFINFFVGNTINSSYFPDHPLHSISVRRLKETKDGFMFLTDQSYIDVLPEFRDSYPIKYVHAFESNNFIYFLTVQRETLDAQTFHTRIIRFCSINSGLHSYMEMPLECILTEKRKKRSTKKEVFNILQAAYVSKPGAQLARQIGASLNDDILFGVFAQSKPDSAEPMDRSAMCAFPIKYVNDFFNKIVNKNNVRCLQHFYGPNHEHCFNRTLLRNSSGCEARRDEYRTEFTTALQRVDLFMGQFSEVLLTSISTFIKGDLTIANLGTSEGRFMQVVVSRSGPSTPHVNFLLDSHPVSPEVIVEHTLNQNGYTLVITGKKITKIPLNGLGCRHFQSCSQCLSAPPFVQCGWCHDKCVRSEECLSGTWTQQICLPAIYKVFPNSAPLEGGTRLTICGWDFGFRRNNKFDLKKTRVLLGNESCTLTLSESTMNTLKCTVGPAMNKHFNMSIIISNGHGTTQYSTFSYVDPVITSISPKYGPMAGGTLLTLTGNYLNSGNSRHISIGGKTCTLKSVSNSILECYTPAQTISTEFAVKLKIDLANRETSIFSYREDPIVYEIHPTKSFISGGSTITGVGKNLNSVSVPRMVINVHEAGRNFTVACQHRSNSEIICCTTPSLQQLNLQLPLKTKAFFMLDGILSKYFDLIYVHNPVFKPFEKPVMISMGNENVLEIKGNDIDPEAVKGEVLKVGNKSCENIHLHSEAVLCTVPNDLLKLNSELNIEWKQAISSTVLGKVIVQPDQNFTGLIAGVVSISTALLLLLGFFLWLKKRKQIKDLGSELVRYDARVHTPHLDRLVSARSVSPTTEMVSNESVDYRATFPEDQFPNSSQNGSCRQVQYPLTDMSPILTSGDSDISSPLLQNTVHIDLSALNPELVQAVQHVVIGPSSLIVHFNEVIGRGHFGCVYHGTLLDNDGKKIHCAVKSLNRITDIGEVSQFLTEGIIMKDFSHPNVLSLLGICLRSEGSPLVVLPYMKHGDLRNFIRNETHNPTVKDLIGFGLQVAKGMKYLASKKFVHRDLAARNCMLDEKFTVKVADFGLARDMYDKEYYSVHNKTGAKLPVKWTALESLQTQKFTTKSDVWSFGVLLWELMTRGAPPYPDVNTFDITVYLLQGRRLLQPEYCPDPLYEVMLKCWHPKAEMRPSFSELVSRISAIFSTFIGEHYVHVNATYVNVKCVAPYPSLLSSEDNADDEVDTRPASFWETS

TRKA = biological target: T8, TRKA (Homo sapiens, UniProt P04629); settings: TRKA
T8 construct: purchased Eurofins DiscoverX KINOMEscan (scanTK)
T8 sequence (P04629 33-796): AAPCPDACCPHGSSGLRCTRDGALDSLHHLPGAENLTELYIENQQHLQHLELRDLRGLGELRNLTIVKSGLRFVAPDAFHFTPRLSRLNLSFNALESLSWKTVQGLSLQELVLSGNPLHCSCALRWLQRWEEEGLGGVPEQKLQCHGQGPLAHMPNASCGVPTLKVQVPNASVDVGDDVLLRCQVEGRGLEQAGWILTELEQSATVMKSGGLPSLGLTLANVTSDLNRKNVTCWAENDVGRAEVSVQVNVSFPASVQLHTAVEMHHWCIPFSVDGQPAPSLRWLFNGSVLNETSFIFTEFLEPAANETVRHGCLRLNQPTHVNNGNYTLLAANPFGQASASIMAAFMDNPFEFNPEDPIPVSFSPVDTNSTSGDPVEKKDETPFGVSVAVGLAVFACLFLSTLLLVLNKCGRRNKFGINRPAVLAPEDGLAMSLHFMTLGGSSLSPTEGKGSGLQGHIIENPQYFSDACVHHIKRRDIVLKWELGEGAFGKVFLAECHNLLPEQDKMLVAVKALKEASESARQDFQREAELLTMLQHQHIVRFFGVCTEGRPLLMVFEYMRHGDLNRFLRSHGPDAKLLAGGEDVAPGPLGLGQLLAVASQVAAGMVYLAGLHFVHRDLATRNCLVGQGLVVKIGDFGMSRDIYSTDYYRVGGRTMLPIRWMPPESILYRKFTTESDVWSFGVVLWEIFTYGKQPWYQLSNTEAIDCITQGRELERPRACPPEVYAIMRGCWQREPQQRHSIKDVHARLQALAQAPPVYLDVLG

Compound | difference in %Control from reference compound Ib at 1 µM (DDR2; @1000nM) [%] | remaining binding at 1 µM (DDR2; @1000nM, read-out: %Control) [%] | remaining binding at 1 µM (DDR2; read-out: %Control @1000nM) [%] | difference in %Control from reference compound Ib at 1 µM (EGFR(E746-A750del); @1000nM) [%] | remaining binding at 1 µM (EGFR(E746-A750del); @1000nM, read-out: %Control) [%] | remaining binding at 1 µM (EGFR(E746-A750del); read-out: %Control @1000nM) [%] | difference in %Control from compound Ib at 1 µM (FLT1; @1000nM) [%] | remaining binding at 1 µM (FLT1; @1000nM, read-out: %Control) [%] | remaining binding at 1 µM (FLT1; read-out: %Control @1000nM) [%] | difference in %Control from compound Ib at 1 µM (FLT3(K663Q); @1000nM) [%] | remaining binding at 1 µM (FLT3(K663Q); @1000nM, read-out: %Control) [%] | remaining binding at 1 µM (FLT3(K663Q); read-out: %Control @1000nM) [%] | difference in %Control from compound Ib at 1 µM (HCK; @1000nM) [%] | remaining binding at 1 µM (HCK; @1000nM, read-out: %Control) [%] | remaining binding at 1 µM (HCK; read-out: %Control @1000nM) [%] | remaining binding at 1 µM (KIT(A829P); @1000nM, read-out: %Control) [%] | remaining binding at 1 µM (KIT(A829P); read-out: %Control @1000nM) [%] | remaining binding at 1 µM (MET(M1250T); @1000nM, read-out: %Control) [%] | remaining binding at 1 µM (MET(M1250T); read-out: %Control @1000nM) [%] | difference in % of control versus compound Ib at 1 µM (TRKA; @1000nM) [%] | other results
CNC(=O)c1cnc(S(C)(=O)=O)nc1N1CCCC(n2nc(-c3ccc(Oc4ccccc4)cc3)c3c(N)ncnc32)C1 (centres unmarked) [Compound 8d, 4-(3-(4-Amino-3-(4-phenoxyphenyl)-1H-pyrazolo[3,4-d]pyrimidin-1-yl)piperidin-1-yl)-N-methyl-2-(methylsulfonyl)pyrimidine-5-carboxamide] | -15 | 82 | 82 | 74 | 85 | 85 | 28 | 100 | 100 | 36 | 80 | 80 | 6.8 | 12 | 12 | 63 | 63 | 100 | 100 | -2 | remaining binding at 1 µM (TRKA; @1000nM, read-out: %Control): 83%; remaining binding at 1 µM (TRKA; read-out: %Control @1000nM): 83%
CCOC(=O)c1cnc(S(C)(=O)=O)nc1N1CCC[C@@H](n2nc(-c3ccc(Oc4ccccc4)cc3)c3c(N)ncnc32)C1 [Compound 8c, Ethyl (R)-4-(3-(4-Amino-3-(4-phenoxyphenyl)-1H-pyrazolo[3,4-d]pyrimidin-1-yl)piperidin-1-yl)-2-(methylsulfonyl)pyrimidine-5-carboxylate] | -22 | 75 | 75 | 89 | 100 | 100 | 28 | 100 | 100 | 56 | 100 | 100 | 22.8 | 28 | 28 | 73 | 73 | 96 | 96 | 8 | remaining binding at 1 µM (TRKA; @1000nM, read-out: %Control): 93%; remaining binding at 1 µM (TRKA; read-out: %Control @1000nM): 93%
